According to BindingDB's records for doi:10.1021/jm0605482 (Amgen, 2006):

Biological target: Aurora kinase B (Homo sapiens) (UniProt Q96GD4)
Assay: Inhibition of Aurora1 by HTRF kinase assay

Aurora kinase B (Homo sapiens), sequence (Q96GD4 whole entry, looked up): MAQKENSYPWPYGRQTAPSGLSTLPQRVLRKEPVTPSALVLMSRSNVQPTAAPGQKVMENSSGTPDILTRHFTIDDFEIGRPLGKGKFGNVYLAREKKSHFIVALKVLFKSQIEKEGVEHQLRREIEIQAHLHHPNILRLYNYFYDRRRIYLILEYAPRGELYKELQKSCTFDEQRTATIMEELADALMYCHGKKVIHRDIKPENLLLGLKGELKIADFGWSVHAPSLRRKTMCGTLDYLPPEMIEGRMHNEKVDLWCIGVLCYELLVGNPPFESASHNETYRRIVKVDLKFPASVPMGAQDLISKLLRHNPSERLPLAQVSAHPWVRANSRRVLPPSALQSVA

IC50: > 5 µM
SMILES: CNc1ncc2cc(-c3cc(C(=O)Nc4cc(C(F)(F)F)ccc4OC4CCN(C)CC4)ccc3C)ccc2n1 [4-methyl-3-(2-(methylamino)quinazolin-6-yl)-N-(2-(1-methylpiperidin-4-yloxy)-5-(trifluoromethyl)phenyl)benzamide]
